The values below come from US20200216416A1, “QUINOLINE COMPOUNDS AS INHIBITORS OF TAM AND MET KINASES” (Array BioPharma Inc., priority 2019, published 2020).

Experiment [1] concerns the target T1, human MET kinase F1200I (Homo sapiens, UniProt P08581, F1200I).
T1 construct: GST-tagged recombinant human MET kinase domain; purchased Signal Chem
Description: c-Met Enzyme Assay, F1200I mutant. The experiment is classed as binding. To be noted: averaged IC50; F1200I 2 nM; 60-minute incubation at 22° C. The essentials:
(§1)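 GST-tagged recombinant MET kinase domain was incubated with 50 nM Alexa-Fluor tracer 236, 2 nM Eu-anti-GST and compound in 25 mM HEPES pH 7.4, 10 mM MgCl2, 0.01% Triton X-100, 1 mM DTT, 2% DMSO for 60 min at 22 °C. TR-FRET ratio gave percent of control, fitted 4-parameter; IC50 at 50 POC.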

The target of experiment [2] is T2, human MET kinase Y1230S (Homo sapiens, UniProt P08581, Y1230S).
T2 construct: GST-tagged recombinant human MET kinase domain; purchased Signal Chem
In words: c-Met Enzyme Assay, Y1230S mutant. To be noted: averaged IC50; Y1230S 8 nM; 60-minute incubation at 22° C.; read-out: Y1230 S IC50. In kind it is binding. In short, it runs like this: as §1

Experiment [3] deals with T3, human MET kinase D1228N (Homo sapiens, UniProt P08581, D1228N).
T3 construct: GST-tagged recombinant human MET kinase domain; purchased Signal Chem
In words: c-Met Enzyme Assay, D1228N mutant. In kind it is binding. To be noted: averaged IC50; D1228N 2 nM; 60-minute incubation at 22° C.; read-out: D1228 N IC50. The essentials: as §1

The target in experiment [4] is T4, human MET kinase D1228H (Homo sapiens, UniProt P08581, D1228H).
T4 construct: GST-tagged recombinant human MET kinase domain; purchased Signal Chem
In words: c-Met Enzyme Assay, D1228H mutant. The experiment is classed as binding. The note with it: averaged IC50; D1228H 2 nM; 60-minute incubation at 22° C.; read-out: D1228 H IC50. The essentials:
as §1

For experiment [5], the target named is T5, human MET kinase Y1230H (Homo sapiens, UniProt P08581, Y1230H).
T5 construct: GST-tagged recombinant human MET kinase domain; purchased Signal Chem
In words: c-Met Enzyme Assay, Y1230H mutant. In kind it is binding. The note with it: averaged IC50; Y1230H 5 nM; 60-minute incubation at 22° C.; read-out: Y1230 H IC50. In short, it runs like this:
as §1

Experiment [6] deals with T6, human MET kinase L1195V (Homo sapiens, UniProt P08581, L1195V).
T6 construct: GST-tagged recombinant human MET kinase domain; purchased Signal Chem
Description: c-Met Enzyme Assay, L1195V mutant. In kind it is binding. To be noted: averaged IC50; L1195V 10 nM; 60-minute incubation at 22° C. The essentials:
as §1

Experiment [7] concerns the target T7, human MET kinase Y1230C (Homo sapiens, UniProt P08581, Y1230C).
T7 construct: GST-tagged recombinant human MET kinase domain; purchased Signal Chem
Description: c-Met Enzyme Assay, Y1230C mutant. In kind it is binding. The note with it: averaged IC50; Y1230C 2 nM; 60-minute incubation at 22° C.; read-out: Y1230 C IC50. The essentials:
as §1

Experiment [8] concerns the target T8, His-tagged recombinant human MER cytoplasmic domain (Homo sapiens, UniProt Q12866).
T8 construct: His-tagged recombinant human MER cytoplasmic domain
T8 sequence (Q12866 527-999 limits assumed): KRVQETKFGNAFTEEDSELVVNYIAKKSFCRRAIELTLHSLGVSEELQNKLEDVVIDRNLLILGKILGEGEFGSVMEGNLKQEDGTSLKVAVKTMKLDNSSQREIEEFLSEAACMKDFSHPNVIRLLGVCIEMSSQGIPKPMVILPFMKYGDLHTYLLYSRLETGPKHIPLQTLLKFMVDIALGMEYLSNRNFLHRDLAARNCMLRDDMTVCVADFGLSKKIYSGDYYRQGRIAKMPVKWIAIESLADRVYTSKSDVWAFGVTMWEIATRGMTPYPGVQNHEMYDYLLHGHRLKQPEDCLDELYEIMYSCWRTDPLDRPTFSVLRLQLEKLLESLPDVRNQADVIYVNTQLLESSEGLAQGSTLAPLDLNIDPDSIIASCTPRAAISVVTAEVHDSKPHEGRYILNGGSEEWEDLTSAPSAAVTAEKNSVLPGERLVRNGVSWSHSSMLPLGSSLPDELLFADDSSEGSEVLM
Description: MER Enzyme Assay (LanthaScreen Eu Kinase Binding). The note with it: averaged IC50; MER 5 nM; 60-minute incubation at 22° C.; TR-FRET. The essentials: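 TR-FRET binding: 5 nM His-MER cytoplasmic domain with 20 nM Tracer 236, 2 nM biotin-anti-His and 2 nM Eu-streptavidin in pH 7.4 HEPES, 10 mM MgCl2, 2% DMSO, with threefold compound dilutions, 60 min at 22 °C. Percent of control was fit to a 4-parameter logistic, and IC50 was taken at 50 POC.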

As usually defined, the IC50 is the concentration that gives 50% inhibition.

T1 sequence (P08581 1078-1345 F1200I limits assumed): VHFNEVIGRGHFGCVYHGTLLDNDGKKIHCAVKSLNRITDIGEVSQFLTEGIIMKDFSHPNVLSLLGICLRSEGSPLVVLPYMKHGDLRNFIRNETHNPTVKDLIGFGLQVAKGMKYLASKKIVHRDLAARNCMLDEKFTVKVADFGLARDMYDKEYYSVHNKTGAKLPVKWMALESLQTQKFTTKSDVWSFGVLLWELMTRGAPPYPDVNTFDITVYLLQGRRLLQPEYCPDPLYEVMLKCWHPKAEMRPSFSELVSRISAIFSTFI
T4 sequence (P08581 1078-1345 D1228H): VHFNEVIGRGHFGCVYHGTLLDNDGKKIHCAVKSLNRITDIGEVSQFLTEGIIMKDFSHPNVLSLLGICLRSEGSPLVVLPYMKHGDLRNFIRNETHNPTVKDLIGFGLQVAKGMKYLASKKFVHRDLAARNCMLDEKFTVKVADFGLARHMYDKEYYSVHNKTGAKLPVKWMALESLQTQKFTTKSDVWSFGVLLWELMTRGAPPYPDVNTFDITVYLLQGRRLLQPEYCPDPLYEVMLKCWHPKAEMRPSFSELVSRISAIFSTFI
T5 sequence (P08581 1078-1345 Y1230H): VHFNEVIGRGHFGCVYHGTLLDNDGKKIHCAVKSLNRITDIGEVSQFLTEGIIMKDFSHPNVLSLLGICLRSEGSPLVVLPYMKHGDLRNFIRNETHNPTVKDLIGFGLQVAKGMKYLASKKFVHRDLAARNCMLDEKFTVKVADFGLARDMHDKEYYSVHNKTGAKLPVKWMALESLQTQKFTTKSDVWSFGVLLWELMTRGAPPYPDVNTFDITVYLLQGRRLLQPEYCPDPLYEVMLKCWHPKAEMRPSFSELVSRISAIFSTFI
T7 sequence (P08581 1078-1345 Y1230C): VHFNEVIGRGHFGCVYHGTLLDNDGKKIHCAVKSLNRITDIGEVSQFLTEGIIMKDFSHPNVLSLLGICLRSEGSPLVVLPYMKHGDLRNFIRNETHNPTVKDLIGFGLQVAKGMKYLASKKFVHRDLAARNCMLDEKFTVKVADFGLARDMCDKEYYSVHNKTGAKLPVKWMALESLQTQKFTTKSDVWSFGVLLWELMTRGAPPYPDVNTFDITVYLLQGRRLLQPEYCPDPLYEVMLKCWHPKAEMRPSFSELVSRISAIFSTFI
T2 sequence (P08581 1078-1345 Y1230S): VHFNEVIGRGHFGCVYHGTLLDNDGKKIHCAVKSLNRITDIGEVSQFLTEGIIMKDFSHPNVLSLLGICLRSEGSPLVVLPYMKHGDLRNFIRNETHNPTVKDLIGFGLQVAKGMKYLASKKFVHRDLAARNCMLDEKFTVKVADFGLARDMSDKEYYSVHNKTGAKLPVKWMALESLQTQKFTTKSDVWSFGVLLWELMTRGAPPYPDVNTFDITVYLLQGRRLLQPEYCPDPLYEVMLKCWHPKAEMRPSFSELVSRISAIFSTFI
T6 sequence (P08581 1078-1345 L1195V limits assumed): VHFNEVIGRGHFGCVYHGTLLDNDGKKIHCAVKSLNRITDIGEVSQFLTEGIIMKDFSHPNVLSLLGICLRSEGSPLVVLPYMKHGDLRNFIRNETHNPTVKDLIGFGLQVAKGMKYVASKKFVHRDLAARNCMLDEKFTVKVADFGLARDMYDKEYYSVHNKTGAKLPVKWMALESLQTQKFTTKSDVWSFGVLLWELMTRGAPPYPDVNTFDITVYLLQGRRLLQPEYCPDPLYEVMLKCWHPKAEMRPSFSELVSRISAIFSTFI
T3 sequence (P08581 1078-1345 D1228N): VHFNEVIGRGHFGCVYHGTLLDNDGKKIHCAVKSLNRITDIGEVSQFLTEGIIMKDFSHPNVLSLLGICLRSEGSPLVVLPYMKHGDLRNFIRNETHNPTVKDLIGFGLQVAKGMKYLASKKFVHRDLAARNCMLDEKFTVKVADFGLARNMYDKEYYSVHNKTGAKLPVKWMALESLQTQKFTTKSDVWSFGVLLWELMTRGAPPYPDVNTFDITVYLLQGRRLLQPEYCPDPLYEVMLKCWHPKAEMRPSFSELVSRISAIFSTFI

Turning to `COc1cc2nccc(Oc3ccc(NC(=O)c4cn(CC(=O)N5CCOCC5)cc(-c5ccc(F)cc5F)c4=O)nc3)c2cc1OC` [Example 15, 5-(2,4-difluorophenyl)-N-(5-((6,7-dimethoxyquinolin-4-yl)oxy)pyridin-2-yl)-1-(2-morpholino-2-oxoethyl)-4-oxo-1,4-dihydropyridine-3-carboxamide], the IC50 in experiment [1] came out at 24.4 nM; in experiment [2], 53.3 nM; in experiment [3], 73.7 nM; in experiment [4], 99.1 nM; in experiment [5], 37.5 nM; in experiment [6] it was 61.4 nM. Further, the IC50 in experiment [7] is 66.8 nM; in experiment [8] it was 29 nM.
On to `COc1cc2nccc(Oc3ccc(NC(=O)c4cn(C(C)C)cc(-c5ccc(Cl)cc5)c4=O)nc3)c2cc1OC` [Example 5, 5-(4-chlorophenyl)-N-(5-((6,7-dimethoxyquinolin-4-yl)oxy)pyridin-2-yl)-1-isopropyl-4-oxo-1,4-dihydropyridine-3-carboxamide], for which the IC50 is 5.7 nM in experiment [1]; 5.4 nM in experiment [2]; 16.1 nM in experiment [3]; 9.6 nM in experiment [4]; 16.6 nM in experiment [5]; 9.8 nM in experiment [6]. The IC50 stood at 8.1 nM in experiment [7] and 4 nM in experiment [8].
As for `COc1cc2nccc(Oc3ccc(NC(=O)c4cn(C(C)C)cc(-c5ccc(F)cc5OC)c4=O)nc3)c2cc1OC` [Example 32, N-(5-((6,7-dimethoxyquinolin-4yl)oxy)pyridin-2-yl)-5-(4-fluoro-2-methoxyphenyl)-1-isopropyl-4-oxo-1,4-dihydropyridine-3-carboxamide], the IC50 in experiment [1] was determined as 4.2 nM; in experiment [2], 7.1 nM; in experiment [3] it was 17.4 nM; in experiment [4], 10 nM; in experiment [5], 12.1 nM; in experiment [6], 44.8 nM. In addition, the 50% inhibitory concentration (IC50) in experiment [7] came to 6.7 nM; in experiment [8], 3 nM.
As for `COc1cc2nccc(Oc3ccc(NC(=O)c4cn(CCN(C)C)cc(-c5ccc(Cl)cc5)c4=O)nc3)c2cc1OC` [Example 42], the IC50 in experiment [1] is 3.4 nM; in experiment [2], 2.7 nM; in experiment [3], 7 nM; in experiment [4] it was 2.4 nM; in experiment [5] it was 6.7 nM; in experiment [6], 8.2 nM. Also, the concentration for half-maximal inhibition (IC50) turned out to be 2.4 nM in experiment [7] and 9 nM in experiment [8].
